In brackets after ≈: the same amount, converted by molar mass.
How the values were obtained:
Format in all cases: functional
[1] = system: Haemophilus influenzae; assay: In vitro antibacterial activity of DILL strain of Gram negative bacteria Haemophilus influenzae
[2] = system: Streptococcus pneumoniae; assay: In vitro antibacterial activity of 5649 strain of Gram positive bacteria Streptococcus pneumoniae
[3] = system: Streptococcus pneumoniae; assay: In vitro antibacterial activity of 5979 strain of Gram positive bacteria Streptococcus pneumoniae
[4] = system: Streptococcus pneumoniae; assay: In vitro antibacterial activity of ATCC 6303 strain of Gram positive bacteria Streptococcus pneumoniae
[5] = system: Staphylococcus aureus; assay: In vitro antibacterial activity of A5177 strain of Gram positive bacteria Staphylococcus aureus
[6] = system: Streptococcus pyogenes; assay: In vitro antibacterial activity of 930 strain of Gram positive bacteria Streptococcus pyogenes
[7] = system: Streptococcus pyogenes; assay: In vitro antibacterial activity of EES61 strain of Gram positive bacteria Streptococcus pyogenes
[8] = system: Streptococcus pyogenes; assay: In vitro antibacterial activity of PIU2584 strain of Gram positive bacteria Streptococcus pyogenes
[9] = system: Staphylococcus aureus; assay: In vitro antibacterial activity of A-5278 strain of Gram positive bacteria Staphylococcus aureus
[10] = system: Staphylococcus aureus; assay: In vitro antibacterial activity of 6538P strain of Gram positive bacteria Staphylococcus aureus
[11] = system: Staphylococcus aureus; assay: In vivo antibacterial activity of NCTC-10649 strain of Gram positive bacteria Staphylococcus aureus
[12] = system: Streptococcus pneumoniae; assay: In vivo antibacterial activity of ATCC 6303 strain of Gram positive bacteria Streptococcus pneumoniae (95% confidence interval)
[13] = system: Staphylococcus aureus; assay: In vivo antibacterial activity of NCTC-10649 strain of Gram positive bacteria Staphylococcus aureus (95% confidence interval)
[14] = system: Streptococcus pneumoniae; assay: In vivo antibacterial activity of ATCC 6303 strain of Gram positive bacteria Streptococcus pneumoniae

Work on `CC[C@H]1OC(=O)/C(C)=C/[C@H](C)[C@@H](O[C@@H]2O[C@H](C)C[C@H](N(C)C)[C@H]2O)[C@@](C)(OC)C[C@@H](C)C(=O)[C@H](C)[C@H]2N(NCCCc3ccccc3Cl)C(=O)O[C@]12C` yielded an MIC [1] of 16 µg/mL (≈ 20.9 µM), an MIC [2] of 1 µg/mL (≈ 1.31 µM) and an MIC [3] of 32 µg/mL (≈ 41.9 µM). For the same compound, the MIC [4] was 0.125 µg/mL (≈ 0.164 µM), the MIC [5] was 0.2 µg/mL (≈ 0.262 µM) and the MIC [6] was 16 µg/mL (≈ 20.9 µM). It also gave an MIC [7] of 0.03 µg/mL (≈ 0.0392 µM), an MIC [8] of 1 µg/mL (≈ 1.31 µM) and an MIC [9] of 50 µg/mL (≈ 65.4 µM). The MIC [10] was 0.2 µg/mL (≈ 0.262 µM).
For `CC[C@H]1OC(=O)/C(C)=C/[C@H](C)[C@@H](O[C@@H]2O[C@H](C)C[C@H](N(C)C)[C@H]2O)[C@@](C)(OC)C[C@@H](C)C(=O)[C@H](C)[C@H]2N(NC/C=C/c3ccc(NC(C)=O)cc3)C(=O)O[C@]12C`, the MIC [1] was 4 µg/mL (≈ 5.1 µM), the MIC [2] was 1 µg/mL (≈ 1.27 µM) and the MIC [3] was > 64 µg/mL. For the same compound, the MIC [4] was 0.03 µg/mL (≈ 0.0382 µM), the MIC [5] was 0.2 µg/mL (≈ 0.255 µM) and the MIC [6] was > 64 µg/mL. The MIC [7] was 0.06 µg/mL (≈ 0.0764 µM), the MIC [8] was 1 µg/mL (≈ 1.27 µM) and the MIC [9] was > 100 µg/mL. For the same compound, the MIC [10] was 0.2 µg/mL (≈ 0.255 µM).
`CC[C@H]1OC(=O)/C(C)=C/[C@H](C)[C@@H](O[C@@H]2O[C@H](C)C[C@H](N(C)C)[C@H]2O)[C@@](C)(OC)C[C@@H](C)C(=O)[C@H](C)[C@H]2N(NCc3cc(O)ccc3O)C(=O)O[C@]12C` gave an MIC [1] of 32 µg/mL (≈ 43.6 µM), an MIC [2] of 2 µg/mL (≈ 2.73 µM) and an MIC [3] of 128 µg/mL (≈ 174 µM). For the same compound, the MIC [4] was 0.25 µg/mL (≈ 0.341 µM), the MIC [5] was 3.1 µg/mL (≈ 4.22 µM) and the MIC [6] was 128 µg/mL (≈ 174 µM). The MIC [7] was 0.25 µg/mL (≈ 0.341 µM), the MIC [8] was 4 µg/mL (≈ 5.45 µM) and the MIC [9] was > 100 µg/mL. It also gave an MIC [10] of 3.1 µg/mL (≈ 4.22 µM).
`CC[C@H]1OC(=O)/C(C)=C/[C@H](C)[C@@H](O[C@@H]2O[C@H](C)C[C@H](N(C)C)[C@H]2O)[C@@](C)(OC)C[C@@H](C)C(=O)[C@H](C)[C@H]2N(NC/C=C/c3ccccc3)C(=O)O[C@]12C` was tested, and the MIC [1] was 8 µg/mL (≈ 11 µM), the MIC [2] was 1 µg/mL (≈ 1.37 µM) and the MIC [3] was 32 µg/mL (≈ 44 µM). The MIC [4] was 0.03 µg/mL (≈ 0.0412 µM), the MIC [5] was 0.1 µg/mL (≈ 0.137 µM) and the MIC [6] was 32 µg/mL (≈ 44 µM). It also gave an MIC [7] of 0.06 µg/mL (≈ 0.0824 µM), an MIC [8] of 0.5 µg/mL (≈ 0.687 µM) and an MIC [9] of 100 µg/mL (≈ 137 µM). It also gave an MIC [10] of 0.02 µg/mL (≈ 0.0275 µM).
`CC[C@H]1OC(=O)/C(C)=C/[C@H](C)[C@@H](O[C@@H]2O[C@H](C)C[C@H](N(C)C)[C@H]2O)[C@@](C)(OC)C[C@@H](C)C(=O)[C@H](C)[C@H]2N(NCc3ccc(O)cc3)C(=O)O[C@]12C` was tested, and the MIC [1] was 4 µg/mL (≈ 5.57 µM), the MIC [2] was 1 µg/mL (≈ 1.39 µM) and the MIC [3] was > 128 µg/mL. The MIC [4] was 0.03 µg/mL (≈ 0.0418 µM), the MIC [5] was 0.2 µg/mL (≈ 0.279 µM) and the MIC [6] was > 128 µg/mL. The MIC [7] was 0.03 µg/mL (≈ 0.0418 µM), the MIC [8] was 1 µg/mL (≈ 1.39 µM) and the MIC [9] was > 100 µg/mL. The MIC [10] was 0.2 µg/mL (≈ 0.279 µM).
In the case of `CC[C@H]1OC(=O)/C(C)=C/[C@H](C)[C@@H](O[C@@H]2O[C@H](C)C[C@H](N(C)C)[C@H]2O)[C@@](C)(OC)C[C@@H](C)C(=O)[C@H](C)[C@H]2N(NCCCc3ccc(NC(C)=O)cc3)C(=O)O[C@]12C`, the MIC [1] is reported as 8 µg/mL (≈ 10.2 µM), the MIC [2] is reported as 2 µg/mL (≈ 2.54 µM) and the MIC [3] is reported as > 128 µg/mL. For the same compound, the MIC [4] was 0.06 µg/mL (≈ 0.0762 µM), the MIC [5] was 0.39 µg/mL (≈ 0.496 µM) and the MIC [6] was > 128 µg/mL. The MIC [7] was 0.06 µg/mL (≈ 0.0762 µM), the MIC [8] was 2 µg/mL (≈ 2.54 µM) and the MIC [9] was > 100 µg/mL. The MIC [10] was 0.39 µg/mL (≈ 0.496 µM).
Work on `CC[C@H]1OC(=O)/C(C)=C/[C@H](C)[C@@H](O[C@@H]2O[C@H](C)C[C@H](N(C)C)[C@H]2O)[C@@](C)(OC)C[C@@H](C)C(=O)[C@H](C)[C@H]2N(NC/C=C/c3cccc4ccccc34)C(=O)O[C@]12C` yielded an MIC [1] of 16 µg/mL (≈ 20.6 µM), an MIC [2] of 1 µg/mL (≈ 1.29 µM) and an MIC [3] of 16 µg/mL (≈ 20.6 µM). The MIC [4] was 0.125 µg/mL (≈ 0.161 µM), the MIC [5] was 0.39 µg/mL (≈ 0.501 µM) and the MIC [6] was 8 µg/mL (≈ 10.3 µM). It also gave an MIC [7] of 0.125 µg/mL (≈ 0.161 µM), an MIC [8] of 1 µg/mL (≈ 1.29 µM) and an MIC [9] of 25 µg/mL (≈ 32.1 µM). For the same compound, the MIC [10] was 0.39 µg/mL (≈ 0.501 µM).
With `CC[C@H]1OC(=O)/C(C)=C/[C@H](C)[C@@H](O[C@@H]2O[C@H](C)C[C@H](N(C)C)[C@H]2O)[C@@](C)(OC)C[C@@H](C)C(=O)[C@H](C)[C@H]2N(NCc3ccc(NC(C)=O)cc3)C(=O)O[C@]12C` the MIC [1] was 4 µg/mL (≈ 5.27 µM), the MIC [2] was 1 µg/mL (≈ 1.32 µM) and the MIC [3] was > 64 µg/mL. The MIC [4] was 0.125 µg/mL (≈ 0.165 µM), the MIC [5] was 0.78 µg/mL (≈ 1.03 µM) and the MIC [6] was > 64 µg/mL. The MIC [7] was 0.03 µg/mL (≈ 0.0395 µM), the MIC [8] was 2 µg/mL (≈ 2.64 µM) and the MIC [9] was > 100 µg/mL. For the same compound, the MIC [10] was 0.78 µg/mL (≈ 1.03 µM).
`CC[C@H]1OC(=O)[C@H](C)[C@@H](O[C@H]2C[C@@](C)(OC)[C@@H](O)[C@H](C)O2)[C@H](C)[C@@H](O[C@@H]2O[C@H](C)C[C@H](N(C)C)[C@H]2O)[C@](C)(OC)C[C@@H](C)C(=O)[C@H](C)[C@@H](O)[C@]1(C)O` [CLARITHROMYCIN] was tested, and the MIC [11] was 0.39 µg/mL (≈ 0.521 µM), the ED50 [12] was 27.2 mg/kg/day and the ED50 [13] was 22.4 mg/kg/day. It also gave an MIC [14] of 0.03 µg/mL (≈ 0.0401 µM).
With `CC[C@H]1OC(=O)[C@H](C)[C@@H](O[C@H]2C[C@@](C)(OC)[C@@H](O)[C@H](C)O2)[C@H](C)[C@@H](O[C@@H]2O[C@H](C)C[C@H](N(C)C)[C@H]2O)[C@](C)(O)C[C@@H](C)C(=O)[C@H](C)[C@@H](O)[C@]1(C)O` [ERYTHROMYCIN] the MIC [1] was 4 µg/mL (≈ 5.45 µM), the MIC [2] was 16 µg/mL (≈ 21.8 µM) and the MIC [3] was > 128 µg/mL. The MIC [4] was 0.06 µg/mL (≈ 0.0818 µM), the MIC [5] was 3.1 µg/mL (≈ 4.22 µM) and the MIC [6] was > 128 µg/mL. The MIC [7] was 0.03 µg/mL (≈ 0.0409 µM), the MIC [8] was 32 µg/mL (≈ 43.6 µM) and the MIC [9] was > 100 µg/mL. It also gave an MIC [10] of 0.2 µg/mL (≈ 0.273 µM).

— ChEMBL document CHEMBL1131216, “Anhydrolide macrolides. 2. Synthesis and antibacterial activity of 2,3-anhydro-6-O-methyl 11,12-carbazate erythromycin A analogues” (1998)
